Key:
[1] = tested on: MDA-MB-231; test: In vitro direct cytotoxicity, Cell titer Blue viability, 72 hrs; details: MDA-MB231
Description: (§1) Cells were maintained in vitro in RPMI 1640 containing 10% (v/v) heat inactivated FBS and 2 mM L-glutamine (growth media) at 37° C. in 5% CO2 and humidified conditions. Cells were harvested, washed, resuspended into growth medium and counted. The cells were re-suspended into assay media (RPMI 1640+1% (v/v) heat inactivated FBS+ and 2 mM L-glutamine) at 0.5-1×10^5 cells/ml (dependent upon cell type) and plated into 96-well assay plates (Corning, black-wall plates) in 50 ul/well aliquots.
(§2) Plates were incubated overnight at 37° C. in 5% humidified CO2 prior to addition of the compounds. […] Stocks of all compounds were then serially diluted. Final concentrations to which cells were exposed were 300, 150, 75, 37.5, 18.75, 9.4, 4.7, 2.3, 1.2, 0.6 μM. Positive control was Cisplatin. Cisplatin was diluted in 1% FBS media to give a stock concentration of 1 mM. Cisplatin stock was then serially diluted. Final concentrations to which cells were exposed were 100, 50, 25, 12.5, 6.3, 3.1, 1.6, 0.8, 0.4, 0.2 μM.
(§3) Plates were incubated for 72 hrs at 37° C. in 5% humidified CO2 after addition of the compounds. Viability of the cells was assessed with the Cell titer Blue™ (Promega) assay. 10 μl of Cell titer Blue™ reagents was added to each test/blank well. Plates were incubated 3 h at 37° C. in 5% humidified CO2 prior to analysis. Fluorescence was measured with a Flex II station plate reader. Excitation wavelength was 570 nm, emission wave length was 600 nm, cut off was 590 nm. Raw data was processed by GraphPad Prism to calculate mean, standard deviation and IC50 values.

[2] = tested on: MCF7; test: as above; details: MCF7
Description: as §1, §2, §3

[3] = tested on: DU-145 prostate cancer cells; details: cited from earlier work
[4] = tested on: LNCaP; test: In vitro direct cytotoxicity, Cell titer Blue viability, 72 hrs; format: cell-based
Description: (§4) Cells were harvested, washed, re-suspended into growth medium and counted.
(§5) Stocks of all compounds were then serially diluted. […] Positive control was Taxotere. Taxotere was diluted in 100% DSMO to give a stock concentration of 1 mM. Stock was serially diluted. Final concentrations to which cells were exposed were 1000, 333.3, 111.1, 37.0, 12.3, 4.1, 1.4, 0.5, and 0.2 nM.

[5] = tested on: DU-145; test: as above; format: cell-based
Description: as §4, §5

[6] = patients suffering from prostate cancer, 5 mg p.o. per day; cited from earlier work
[7] = In vitro metabolism in human liver microsomes (STS and CYP); format: in vitro ADME; details: for Contribution to metabolism / half-life at 5 μM / Half-life: 5 μM; for half-life at 5 μM: human, liver microsomes
Description: In vitro metabolism pathways of DES, Mono-Sulfestrol and Di-Sulfestrol in human liver microsomes were investigated.
Special emphasis was put on desulfatation by steroid sulfatase (STS) and oxidation by cytochrome P (CYP) metabolism. Liver microsomes (Celsis in vitro Technologies) were used at a concentration of 0.5 mg/ml in a volume of 600 μl phosphate buffer pH 7.4. Estrone-3-sulfate was used as positive control.
5 μM of each compound (test and control compound) was added to the liver microsomes and the mixture was incubated at 37° C. for 5, 10, 20, 30, 50, 90 and 120 minutes. After incubation, aliquots of 45 μl were taken which were subsequently quenched with 150 μl ice cold methanol. Aliquots were incubated ≧1 h at −20° C. for protein precipitation. After precipitation, samples were centrifuged and remaining supernatant was used for analysis with LC-MS/MS. Half life of the compounds, speed of metabolism or intrinsic clearance (Clint), and contribution to metabolism of CYP and STS metabolism were calculated based on the data obtained at each time point.

[8] = Estrogenic activity: body weight and plasma cholesterol levels; format: in vivo, male Sprague-Dawley rats; details: for Mean bodyweight: in g (unit assumed)
Description: Estrogenic activity was determined by measuring body weight and plasma cholesterol levels.
Each animal was dosed three times a day with vehicle or test compound (1st dose 7:30-8:00, 2nd dose 12:30-13:00, 3rd dose 17:00-17:30) for 14 consecutive days.
After 14 days treatment, blood was collected from the animals via cardiac puncture 4 hrs past final dosing to analyze plasma cholesterol levels. The blood was immediately transferred to a tube containing 0.5M EDTA anticoagulant. It was mixed gently and centrifuged at 1000×g at 4° C. for 15 min. Plasma was aspirated from the centrifuged blood samples, quick frozen on dry ice and stored at −80° C. for later use.
Plasma cholesterol levels were determined using a commercial ELISA kit obtained from NovaTeinBio (BG-RAT11262). Standard protocol accompanied by the kit was used without any adjustments.

[9] = tested on: prostate cancer cells; details: cited from earlier work
[10] = tested on: MCF-7 breast cancer cells; details: cited from earlier work
[11] = tested on: platelet-rich plasma (PRP); test: Platelet-aggregation-inducing effects in platelet-rich plasma, absorbance 630 nm; format: cell-based; details: 7 minutes, human PRP
Description: Blood necessary to generate PRP was obtained from 4 healthy human volunteers. 100 ml of fresh venous blood from each donor was isolated directly into tubes containing 1/10th volume of the anti-coagulant Tri-Sodium Citrate (3.2% w/v). The blood and anti-coagulant were immediately mixed and the final concentration of Tri-Sodium Citrate was 0.0106 M.
PRP was prepared by centrifugation of anti-coagulated blood at 180 g for 10 minutes at room temperature. The cloudy yellow supernatant containing the platelets was removed and placed into a clean polypropylene tube. Platelet-poor plasma (PPP) was prepared by centrifuging the remaining sample at 1,200 g for 20 minutes at room temperature. The PRP was adjusted to a suitable platelet count and absorbance at 630 nm by addition of PPP.
All three compounds were dissolved in 100% DMSO to give a stock concentration of 60 mM. […] […] 100 nM gamma thrombin (Cambridge bioscience) was used as control for platelet aggregation. 90 μl aliquots of PRP were added to 96 wells plates. A baseline absorbance reading was taken at 630 nm. 5 μl of the compounds and gamma thrombin control was added to the appropriate PRP.
The plates were incubated at room temperature for 7 minutes on a plate shaker with continuous shaking. A second A630 nm reading was made after the 7 minutes incubation to measure any platelet aggregation induced by the compounds.

[12] = + NADPH + 667-Coumate (STS inactive, CYP active)
[13] = nothing added (STS active, CYP inactive)

**Q.** Which “cytotoxicity in vitro (in words)” value [1] does the source give for `CC/C(=C(/CC)c1ccc(O)cc1)c1ccc(O)cc1` [DES, diethylstilbestrol, reference compound] here?
**A.** Its value is “cytotoxic”.

**Q.** What about the “cytotoxicity in vitro (in words)” value [2] of the same compound?
**A.** The value was “cytotoxic”.

**Q.** And the “cytotoxic effects (in words)” value [3]?
**A.** The value was “cytotoxic effects”.

**Q.** What about the “cytotoxicity in vitro (in words)” value [4] of the same compound?
**A.** The value was “cytotoxic”.

**Q.** And the “cytotoxicity in vitro (in words)” value ([5]; DU-145)?
**A.** Its value is “cytotoxic”.

**Q.** What about the “increase of non-cancer related deaths, mostly cardiovascular” value [6] of the same compound?
**A.** The value was 36%.

**Q.** And the “metabolism pathway in human liver microsomes (in words)” value [7]?
**A.** Its value is “only processed by CYP metabolism”.

**Q.** And the Contribution to metabolism [7, 12]?
**A.** The Contribution to metabolism was 131%.

**Q.** And the half-life at 5 μM ([7]; pH 7.4, + NADPH (STS and CYP active))?
**A.** The half-life at 5 μM was 18 min.

**Q.** And the half-life at 5 μM ([7]; pH 7.4, nothing added (STS active, CYP inactive))?
**A.** Its half-life at 5 μM is 194 min.

**Q.** What about the half-life at 5 μM ([7]; pH 7.4, with 667-Coumate (STS inhibitor; concentration not stated), + NADPH + 667-Coumate (STS inactive, CYP active)) of the same compound?
**A.** Its half-life at 5 μM is 14 min.

**Q.** And the Contribution to metabolism [7, 13]?
**A.** The Contribution to metabolism was 9%.

**Q.** What about the Mean bodyweight ([8]; Day 0, DES 1.5 mg/kg per day, Di-Sulfestrol 3 mg/kg per day, three doses a day) of the same compound?
**A.** The Mean bodyweight was 382 ± 7.8.

**Q.** What about the Mean bodyweight ([8]; Day 2) of the same compound?
**A.** The Mean bodyweight was 379 ± 9.3.

**Q.** And the Mean bodyweight ([8]; Day 4)?
**A.** Its Mean bodyweight is 361 ± 8.6.

**Q.** And the Mean bodyweight ([8]; Day 6)?
**A.** Its Mean bodyweight is 350 ± 8.0.

**Q.** What about the Mean bodyweight ([8]; Day 8) of the same compound?
**A.** The Mean bodyweight was 342 ± 8.0.

**Q.** What about the Mean bodyweight ([8]; Day 10) of the same compound?
**A.** The Mean bodyweight was 341 ± 7.8.

**Q.** What about the Mean bodyweight ([8]; Day 12) of the same compound?
**A.** Its Mean bodyweight is 337 ± 8.4.

**Q.** And the Mean bodyweight ([8]; Day 14)?
**A.** Its Mean bodyweight is 339 ± 9.80.

**Q.** And the “Cholesterol (plasma)” value ([8]; after 14 days treatment, 4 hrs past final dosing, DES 1.5 mg/kg per day, Di-Sulfestrol 3 mg/kg per day)?
**A.** Its value is 14.9 ± 0.724 nmol/L.

**Q.** What about the “estrogenic activity in rats (in words)” value ([8]; lowering body weight and cholesterol levels) of the same compound?
**A.** The value was “show estrogenic activity”.

**Q.** What about the “concentrations that do not influence prostate cancer cell growth” value [9] of the same compound?
**A.** The value was “up to 100 ng/ml”.

**Q.** What about the “minimal concentration to induce cytotoxic effects” value [9] of the same compound?
**A.** Its value is 1 µg/mL.

**Q.** What about the “effect on cell growth in vitro (in words)” value [10] of the same compound?
**A.** The value was “reduced cell growth in vitro”.

**Q.** And the “Absorbance (630 nm)” value ([11]; 2.3 μM, high absorbance = low aggregation)?
**A.** Its value is 0.264 ± 0.030.

**Q.** And the “Absorbance (630 nm)” value ([11]; 4.7 μM)?
**A.** Its value is 0.266 ± 0.031.

**Q.** What about the “Absorbance (630 nm)” value ([11]; 9.4 μM) of the same compound?
**A.** The value was 0.264 ± 0.030.

**Q.** And the “Absorbance (630 nm)” value ([11]; 18.75 μM)?
**A.** Its value is 0.264 ± 0.030.

**Q.** And the “Absorbance (630 nm)” value ([11]; 37.5 μM)?
**A.** The value was 0.264 ± 0.030.

**Q.** What about the “Absorbance (630 nm)” value ([11]; 75 μM) of the same compound?
**A.** The value was 0.268 ± 0.032.

**Q.** What about the “Absorbance (630 nm)” value ([11]; 150 μM) of the same compound?
**A.** Its value is 0.263 ± 0.033.

**Q.** Which Contribution to metabolism [7, 12] does the source give for `C[C@]12CC[C@@H]3c4ccc(OS(=O)(=O)O)cc4CC[C@H]3[C@@H]1CCC2=O` [E-3-S, Estrone-3-sulfate] here?
**A.** Its Contribution to metabolism is 19%.

**Q.** And the Half-life [7, 12]?
**A.** Its Half-life is 62 min.

**Q.** What about the Contribution to metabolism [7, 13] of the same compound?
**A.** Its Contribution to metabolism is 44%.

**Q.** And the Half-life [7, 13]?
**A.** Its Half-life is 27 min.

**Q.** Which IC50 ([4]; Homo sapiens, hormone-dependent prostate cancer cell line, 72 hrs) does the source give for `CC(=O)O[C@@]12CO[C@@H]1C[C@H](O)[C@@]1(C)C(=O)[C@H](O)C3=C(C)[C@@H](OC(=O)[C@H](O)[C@@H](NC(=O)OC(C)(C)C)c4ccccc4)C[C@@](O)([C@@H](OC(=O)c4ccccc4)[C@H]21)C3(C)C` [Taxotere, reference compound] here?
**A.** Its IC50 is 2 nM.

**Q.** What about the IC50 ([5]; Homo sapiens, DU-145, hormone-independent prostate cancer cell line, 72 hrs) of the same compound?
**A.** Its IC50 is 4 nM.
